The subject of one assay is human neutrophils. The experiment in a line: Neutrophil Superoxide Anion (O2) Release Assay, PMA-stimulated. It counts as cell-based. The note with it: PMA-stimulated human neutrophils, read-out: Neutrophil Superoxide Release IC50. From the text:
Phorbol-12,13-myristate acetate (PMA) stimulates O2 production in human neutrophils which in turn reduces cytochrome C. Reducing cytochrome C increases absorbance and the change in optical density (OD) is proportional to the amount of O2 produced by PMA stimulation. Inhibition is expressed as an IC50 value and is the amount of test compound that will inhibit fifty percent of the PMA-stimulated respiratory outburst, i.e. O2^31 production (Lherer et al. (1981) J. Clinical lnvest. 68:1314; Roberts et al. (1982) J. Immunological Methods 49:193).
Human donor blood in 0.38% Sodium Citrate was centrifuged for 10 minutes at 160 ×g at room temperature. Platelet-rich plasma was removed leaving the buffy coat and the red cell-enriched fraction. Saline with 0.38% Sodium Citrate was added to this fraction up to the original blood volume. The enriched blood sample was diluted 1:1 (v:v) with 3% dextran T500 (Pharmacia) in normal saline and placed in a 60 cc syringe, inverted over a beaker and allowed to settle 30 minutes at room temperature.
Leukocyte-enriched plasma was removed from the syringe, placed into 50 ml polypropylene conical centrifuge tubes and underlaid with 15-20 ml Lymphocyte Separation Medium (LSM Organon Technica). The tubes were centrifuged for 40 minutes at 500×g at room temperature. The plasma, buffy coat and LSM were aspirated off the pellets which contained red blood cells and neutrophils.
The pellets were vortexed and 10 ml ice-cold 0.2% NaCl was added to lyse the red blood cells while vortexing again for 10 seconds. Ice-cold 1.6% NaCl was added while vortexing for 10 seconds. The cells were combined from multiple tubes, centrifuged 10 min at 400×g at 4° C. This red cell lysis was repeated and the resulting neutrophil pellet was washed once in Reaction HBSS (GIBCO, HBSS with Ca^++ and Mg^++,.238% HEPES, 0.1% dextrose, 0.1% RIA grade bovine serum albumin, PH 7.2). The cells were resuspended in 1/5 the original blood volume with Reaction HBSS, counted and adjusted to 4.0×10^6 cells/ml at 4° C.
Duplicate samples of neutrophils were tested in 12×75 mm polypropylene tubes containing 0.25 ml of the neutrophil suspension. Cytochrome C mix (0.25 ml, 6.0 mg/ml cytochrome C type IV (Sigma) plus 1200 U/ml bovine liver catalase (Sigma) in Reaction HBSS described above) was added. PMA was added at 2×the final concentration in 0.5 ml of Reaction HBSS. PMA final test concentration were 0.0, 0.3, 9.0, 27.0, and 81.0 ng/ml. The tubes were vortexed and incubated for 10 minutes at 37° C. with shaking. After chilling for 5 minutes at 4° C. and centrifuging for 10 minutes at 4° C., 550×g, 0.5 ml of supernatant was removed from each tube. Normal saline (0.5 ml) was added to each 0.5 ml sample of supernatant and the absorbance of each sample was read at 550 nm on a spectrophotometer (Shimadzu). The PMA concentration which gives nearly maximal stimulation of superoxide release was determined.
The test samples of neutrophils were prepared as in the PMA dose response through addition of cytochrome C mix. Then 0.4 ml of Reaction HBSS as a control or test agent at 2.5×final test concentration was added and the tubes were vortexed and incubated for 30 minutes at 37° C. with shaking. PMA (0.1 ml) was added at a 10× concentration of the final concentration determined above. The samples were incubated for 10 minutes at 37° C. with shaking, chilled for 5 minutes at 4° C., and then centrifuged for 5 minutes at 550×g at 4° C. The supernatant (0.5 ml) was diluted with 0.5 ml normal saline as above and the absorbance was then determined at 550 nm. The percent change was calculated as follows: [formula] D-sphingosine (Sigma) used as reference standard.
Human neutrophils were first isolated according to Lherer et al. ((1981) J. Clinical Invest. 68:1314) and then tested for stimulation of superoxide anion release with phorbol--12,13-myristate acetate (PMA) in a dose-dependent manner. […]

For a further assay, the target named is T1, PKC isoenzyme βII (Homo sapiens, UniProt P05771).
T1 construct: made in house; host or cells: baculovirus-insect cell expression system
Description: Protein kinase C inhibition assay, PKC isoenzyme βII. It counts as biochemical. As for the experimental part: A protein kinase C (PKC) assay is designed to duplicate the in vivo conditions required for protein kinase C function. Therefore, pH, salt and cofactor concentrations are similar to physiologic levels. Either lysine rich histone H1 (H1) or Myelin basic protein (Mbp) are used in the assay as the phosphorylation acceptor-protein because they are readily available and serve as good substrates for protein kinase C. Enzyme was prepared from baculovirus-insect cell expression systems.
In the screening assay, phosphatidylserine (PS) and DAG were co-sonicated to form unilamellar and multilamellar vesicles. The concentration of lipids in the assay were suboptimal to maximize the detection potential of the assay for inhibitors or activators. Potential effector compounds were added to the assay in dimethylsulfoxide at four concentrations to give final inhibitor concentrations of 1, 10, 50, and 150 μM, respectively.
The assay was started with the addition of enzyme and stopped after 10 min by the addition of 25% trichloroacetic acid (TCA) and 1.0 mg/ml bovine serum albumin (BSA). The radioactive histone product was retained and washed on glass fiber filters that allow the unreacted P-ATP to pass through. The amount of phosphorylation was determined by measuring radioactivity with a scintillation counter. Controls were included in every assay to measure background activity in the absence of enzyme, activity in the absence of lipids, and the maximum enzyme activity with saturating levels of the activator lipids.
Results of the protein kinase C assay are shown in Table 4 in columns labeled α, βII, γ, δ, ε, and .zeta. which represent various PKC isoenzymes. Results are show as IC50, which is the concentration of test compound needed to inhibit 50% of the protein kinase C activity in controls.

Where two headings read alike, the source gives them in different places.

T1 sequence (P05771 1-673 isoform P05771-2): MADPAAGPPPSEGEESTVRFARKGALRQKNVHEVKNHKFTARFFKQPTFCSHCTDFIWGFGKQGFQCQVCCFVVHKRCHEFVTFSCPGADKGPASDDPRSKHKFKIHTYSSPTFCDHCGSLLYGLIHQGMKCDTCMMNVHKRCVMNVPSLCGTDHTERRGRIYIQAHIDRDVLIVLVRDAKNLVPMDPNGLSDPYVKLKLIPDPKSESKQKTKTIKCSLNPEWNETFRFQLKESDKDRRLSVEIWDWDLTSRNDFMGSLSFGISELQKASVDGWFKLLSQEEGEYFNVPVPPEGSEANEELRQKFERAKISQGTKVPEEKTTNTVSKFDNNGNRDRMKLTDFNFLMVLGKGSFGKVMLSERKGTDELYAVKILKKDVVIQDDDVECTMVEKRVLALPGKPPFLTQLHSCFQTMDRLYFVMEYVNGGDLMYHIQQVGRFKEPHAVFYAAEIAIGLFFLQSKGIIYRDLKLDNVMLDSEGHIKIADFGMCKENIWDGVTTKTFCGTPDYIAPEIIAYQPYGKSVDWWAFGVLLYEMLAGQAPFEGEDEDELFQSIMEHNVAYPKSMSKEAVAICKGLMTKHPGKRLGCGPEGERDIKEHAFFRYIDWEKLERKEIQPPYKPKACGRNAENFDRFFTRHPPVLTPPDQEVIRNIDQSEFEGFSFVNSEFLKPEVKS

`O=C1C(Nc2ccc(S(=O)(=O)NCCNc3ccc([N+](=O)[O-])cn3)cc2)=CC(=Nc2ccc(S(=O)(=O)NCCNc3ccc([N+](=O)[O-])cn3)cc2)c2ccccc21` [Compound 3ac]: the concentration for half-maximal inhibition (IC50) turned out to be 0.05 µM in the assay on human neutrophils (Homo sapiens, Neutrophil) and 89 µM against PKC isoenzyme βII (IC50 PKC βII).
In the case of `Cc1cc(C)nc(NS(=O)(=O)c2cccc(N=C3C=C(Nc4cccc(S(=O)(=O)Nc5cc(C)cc(C)n5)c4)C(=O)c4ccccc43)c2)c1` [Compound 3ae], the IC50 in the assay with human neutrophils (Homo sapiens, Neutrophil) was 0.04 µM; on PKC isoenzyme βII (read-out: IC50 PKC βII), 52 µM.
In the same order, the values of `COc1cc(NS(=O)(=O)c2ccc(N=C3C=C(Nc4ccc(S(=O)(=O)Nc5cc(OC)cc(OC)c5)cc4)C(=O)c4ccccc43)cc2)cc(OC)c1` [Compound 3af] are 0.06 µM and 143 µM.
The like results for `Cc1cc(C)nc(NS(=O)(=O)c2cc(N=C3C=C(Nc4ccc(C)c(S(=O)(=O)Nc5cc(C)cc(C)n5)c4)C(=O)c4ccccc43)ccc2C)c1` [Compound 3ag] were, in that order, 0.04 µM and 17 µM.
In the same order, the values of `Cc1cc(C)nc(NC(=O)c2ccc(N=C3C=C(Nc4ccc(C(=O)Nc5cc(C)cc(C)n5)cc4)C(=O)c4ccccc43)cc2)c1` [Compound 3ah] are 8.97 µM and 145 µM.
Regarding `Cc1cc(C)nc(NC(=O)c2ccc(N=C3C=C(Nc4ccc(C(=O)Nc5nc(C)cc(C)n5)cc4)C(=O)c4ccccc43)cc2)n1` [Compound 3ai], the 50% inhibitory concentration (IC50) in the assay on human neutrophils (Homo sapiens, Neutrophil) amounted to 4.02 µM; at PKC isoenzyme βII (read-out: IC50 PKC βII) it was 101 µM.
In the same order, the values of `Cc1noc(NS(=O)(=O)c2ccc(N=C3C=C(Nc4ccc(S(=O)(=O)Nc5onc(C)c5C)cc4)C(=O)c4ccccc43)cc2)c1C` [Compound 3b] are 7.6 µM and 29 µM.
Consider `Cc1cc(C)nc(NS(=O)(=O)c2ccc(N=C3C=C(Nc4ccc(S(=O)(=O)Nc5nc(C)cc(C)n5)cc4)C(=O)c4ccccc43)cc2)n1` [Compound 3c], for which the half-maximal inhibitory concentration (IC50) in the assay with human neutrophils worked out at 0.77 µM; at PKC isoenzyme βII (read-out: IC50 PKC βII), 7 µM.
As for `Cc1cc(NS(=O)(=O)c2ccc(N=C3C=C(Nc4ccc(S(=O)(=O)Nc5cc(C)nc(C)n5)cc4)C(=O)c4ccccc43)cc2)nc(C)n1` [Compound 3d], the IC50 worked out at 5.85 µM with human neutrophils (Homo sapiens, Neutrophil) and 31 µM on PKC isoenzyme βII (read-out: IC50 PKC βII).
Consider `Cc1nnc(NS(=O)(=O)c2ccc(N=C3C=C(Nc4ccc(S(=O)(=O)Nc5nnc(C)s5)cc4)C(=O)c4ccccc43)cc2)s1` [Compound 3e], for which the IC50 with human neutrophils (Homo sapiens, Neutrophil) turned out to be 8.38 µM; on PKC isoenzyme βII (read-out: IC50 PKC βII), 14 µM.
In the same order, the values of `Cc1ccnc(NS(=O)(=O)c2ccc(N=C3C=C(Nc4ccc(S(=O)(=O)Nc5nccc(C)n5)cc4)C(=O)c4ccccc43)cc2)n1` [Compound 3f] are 2.51 µM and 23 µM.
Take `COc1cc(NS(=O)(=O)c2ccc(N=C3C=C(Nc4ccc(S(=O)(=O)Nc5cc(OC)nc(OC)n5)cc4)C(=O)c4ccccc43)cc2)nc(OC)n1` [Compound 3g]: the figures for the concentration for half-maximal inhibition (IC50) in the assay on human neutrophils and on PKC isoenzyme βII (read-out: IC50 PKC βII) were 2.75 µM and 25 µM, respectively.
With `COc1cnc(NS(=O)(=O)c2ccc(N=C3C=C(Nc4ccc(S(=O)(=O)Nc5ncc(OC)cn5)cc4)C(=O)c4ccccc43)cc2)nc1` [Compound 3h], the concentration for half-maximal inhibition (IC50) with human neutrophils came out at 8.7 µM; at PKC isoenzyme βII (read-out: IC50 PKC βII), 53 µM.
Take `O=C1C(Nc2ccc(S(=O)(=O)Nc3ccccn3)cc2)=CC(=Nc2ccc(S(=O)(=O)Nc3ccccn3)cc2)c2ccccc21` [Compound 3i]: the IC50 in the assay on human neutrophils (Homo sapiens, Neutrophil) stood at 0.1 µM; at PKC isoenzyme βII (read-out: IC50 PKC βII), 26 µM.
Turning to `COc1ccc(NS(=O)(=O)c2ccc(N=C3C=C(Nc4ccc(S(=O)(=O)Nc5ccc(OC)nn5)cc4)C(=O)c4ccccc43)cc2)nn1` [Compound 3j], the concentration for half-maximal inhibition (IC50) in the assay with human neutrophils (Homo sapiens, Neutrophil) amounted to 1.74 µM; at PKC isoenzyme βII (read-out: IC50 PKC βII) it was 45 µM.
Consider `O=C1C(Nc2ccc(S(=O)(=O)Nc3ccc(Cl)nn3)cc2)=CC(=Nc2ccc(S(=O)(=O)Nc3ccc(Cl)nn3)cc2)c2ccccc21` [Compound 3l], for which the half-maximal inhibitory concentration (IC50) was found to be 0.9 µM in the assay with human neutrophils and 24 µM on PKC isoenzyme βII (read-out: IC50 PKC βII).
Take `O=C1C(Nc2ccc(S(=O)(=O)Nc3cnc4ccccc4n3)cc2)=CC(=Nc2ccc(S(=O)(=O)Nc3cnc4ccccc4n3)cc2)c2ccccc21` [Compound 3m]: the half-inhibitory concentration (IC50) came to 1.31 µM with human neutrophils (Homo sapiens, Neutrophil) and 22 µM at PKC isoenzyme βII (read-out: IC50 PKC βII).
For `O=C1C(Nc2ccc(S(=O)(=O)NCc3ccccn3)cc2)=CC(=Nc2ccc(S(=O)(=O)NCc3ccccn3)cc2)c2ccccc21` [Compound 3n], the IC50 came out at 0.22 µM in the assay with human neutrophils and 141 µM at PKC isoenzyme βII (read-out: IC50 PKC βII).
Take `Cc1cc(NS(=O)(=O)c2ccc(N=C3C=C(Nc4ccc(S(=O)(=O)Nc5cc(C)on5)cc4)C(=O)c4ccccc43)cc2)no1` [Compound 6a]: the IC50 in the assay on human neutrophils is 8 µM; at PKC isoenzyme βII (read-out: IC50 PKC βII) it was 24 µM.
In the case of `COc1cc(NS(=O)(=O)c2ccc(N=C3C=C(Nc4ccc(S(=O)(=O)Nc5cc(OC)cc(OC)c5)cc4)C(=O)c4ccccc43)cc2)cc(OC)c1` [Compound 6af], the half-inhibitory concentration (IC50) with human neutrophils is 0.07 µM; at PKC isoenzyme βII (read-out: IC50 PKC βII), > 150 µM.
For `Cc1cc(C)nc(NS(=O)(=O)c2cc(N=C3C=C(Nc4ccc(C)c(S(=O)(=O)Nc5cc(C)cc(C)n5)c4)C(=O)c4ccccc43)ccc2C)c1` [Compound 6ag], the IC50 came to 0.06 µM in the assay with human neutrophils and 28 µM at PKC isoenzyme βII (read-out: IC50 PKC βII).
With `Cc1cc(C)nc(NS(=O)(=O)c2ccc(N=C3C=C(Nc4ccc(S(=O)(=O)Nc5nc(C)cc(C)n5)cc4)C(=O)c4ccccc43)cc2)n1` [Compound 6c], the IC50 is 1.88 µM in the assay with human neutrophils and 14 µM on PKC isoenzyme βII (read-out: IC50 PKC βII).
The like results for `Cc1cc(NS(=O)(=O)c2ccc(N=C3C=C(Nc4ccc(S(=O)(=O)Nc5cc(C)nc(C)n5)cc4)C(=O)c4ccccc43)cc2)nc(C)n1` [Compound 6d] were, in that order, 6.47 µM and 39 µM.
Regarding `Cc1nnc(NS(=O)(=O)c2ccc(N=C3C=C(Nc4ccc(S(=O)(=O)Nc5nnc(C)s5)cc4)C(=O)c4ccccc43)cc2)s1` [Compound 6e], the IC50 in the assay on human neutrophils came out at 4.78 µM; at PKC isoenzyme βII (read-out: IC50 PKC βII) it was 24 µM.
As for `Cc1ccnc(NS(=O)(=O)c2ccc(N=C3C=C(Nc4ccc(S(=O)(=O)Nc5nccc(C)n5)cc4)C(=O)c4ccccc43)cc2)n1` [Compound 6f], the IC50 with human neutrophils was found to be 2.11 µM.
On to `COc1cc(NS(=O)(=O)c2ccc(N=C3C=C(Nc4ccc(S(=O)(=O)Nc5cc(OC)nc(OC)n5)cc4)C(=O)c4ccccc43)cc2)nc(OC)n1` [Compound 6g], for which the IC50 in the assay on human neutrophils came out at 1.34 µM; on PKC isoenzyme βII (read-out: IC50 PKC βII), 33 µM.
In the same order, the values of `COc1cnc(NS(=O)(=O)c2ccc(N=C3C=C(Nc4ccc(S(=O)(=O)Nc5ncc(OC)cn5)cc4)C(=O)c4ccccc43)cc2)nc1` [Compound 6h] are 2.4 µM and 97 µM.
